Data taken from patent US10479780B2, “Aminopyrazole derivatives” (Chugai Seiyaku Kabushiki Kaisha, priority 2015, dated 2019).

Tests used:
Format in all cases: biochemical
human Yes1 enzyme = molecular target: T1, human Yes1 enzyme (Homo sapiens, UniProt P07947); assay: Yes1 enzyme inhibitory activity (time-resolved fluorometry, biotinylated peptide phosphorylation); conditions: read-out: YES_IC50
T1 construct: made in house
Summary of the method: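 Inhibition was expressed against a compound-free control to give IC50, using TR-FRET read-out (Eu-cryptate anti-pTyr antibody, streptavidin-XL665).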

human Src enzyme = molecular target: T2, human Src enzyme (Homo sapiens, UniProt P12931); assay: Src enzyme inhibitory activity (time-resolved fluorometry, biotinylated peptide phosphorylation); conditions: read-out: SRC_IC50
T2 construct: purchased Carna Biosciences, Inc. 08-173
Summary of the method: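 Compounds were tested for blocking tyrosine phosphorylation of a biotinylated peptide substrate by recombinant human Src. Phosphorylated product was quantified by time-resolved fluorometry using europium cryptate and XL665 conjugates, and IC50 was calculated against the compound-free control.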

human Lck enzyme = molecular target: T3, human Lck enzyme (Homo sapiens, UniProt P06239); assay: Lck enzyme inhibitory activity (time-resolved fluorometry, biotinylated peptide phosphorylation); conditions: read-out: LCK_IC50
T3 construct: purchased Carna Biosciences, Inc. 08-170
Summary of the method: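 Readout pairs a europium cryptate-labelled anti-phosphotyrosine antibody with XL665-streptavidin, measured by time-resolved fluorescence. IC50 derived from percent inhibition against untreated controls.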

T3 sequence (P06239 whole entry): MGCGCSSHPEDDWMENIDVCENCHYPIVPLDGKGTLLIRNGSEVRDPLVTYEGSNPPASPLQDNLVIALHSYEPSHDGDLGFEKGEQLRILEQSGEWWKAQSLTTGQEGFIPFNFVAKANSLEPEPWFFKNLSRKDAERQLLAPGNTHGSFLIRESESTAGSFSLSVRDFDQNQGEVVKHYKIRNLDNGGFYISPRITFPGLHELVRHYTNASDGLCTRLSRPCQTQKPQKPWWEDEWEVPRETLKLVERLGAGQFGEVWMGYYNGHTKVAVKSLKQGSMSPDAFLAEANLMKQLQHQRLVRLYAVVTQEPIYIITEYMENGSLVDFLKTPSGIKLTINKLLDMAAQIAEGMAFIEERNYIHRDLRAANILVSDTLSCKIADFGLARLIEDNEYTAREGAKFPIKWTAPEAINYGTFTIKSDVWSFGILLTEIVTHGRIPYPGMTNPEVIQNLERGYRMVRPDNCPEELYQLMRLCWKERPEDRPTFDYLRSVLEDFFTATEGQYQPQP
T2 sequence (P12931 whole entry): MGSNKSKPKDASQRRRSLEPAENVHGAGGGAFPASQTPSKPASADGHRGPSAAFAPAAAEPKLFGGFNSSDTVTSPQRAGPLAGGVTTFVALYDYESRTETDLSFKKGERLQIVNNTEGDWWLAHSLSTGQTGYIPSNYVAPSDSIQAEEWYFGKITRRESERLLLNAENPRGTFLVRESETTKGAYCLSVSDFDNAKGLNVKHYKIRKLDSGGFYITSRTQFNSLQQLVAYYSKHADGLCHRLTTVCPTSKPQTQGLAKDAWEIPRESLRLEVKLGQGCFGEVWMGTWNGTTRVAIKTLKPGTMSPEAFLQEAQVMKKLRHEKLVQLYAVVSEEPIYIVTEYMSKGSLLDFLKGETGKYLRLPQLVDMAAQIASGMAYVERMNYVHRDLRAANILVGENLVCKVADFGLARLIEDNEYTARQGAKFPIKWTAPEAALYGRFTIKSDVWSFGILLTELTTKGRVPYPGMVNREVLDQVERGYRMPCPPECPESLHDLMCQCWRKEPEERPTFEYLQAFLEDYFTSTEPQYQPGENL
T1 sequence (P07947 whole entry): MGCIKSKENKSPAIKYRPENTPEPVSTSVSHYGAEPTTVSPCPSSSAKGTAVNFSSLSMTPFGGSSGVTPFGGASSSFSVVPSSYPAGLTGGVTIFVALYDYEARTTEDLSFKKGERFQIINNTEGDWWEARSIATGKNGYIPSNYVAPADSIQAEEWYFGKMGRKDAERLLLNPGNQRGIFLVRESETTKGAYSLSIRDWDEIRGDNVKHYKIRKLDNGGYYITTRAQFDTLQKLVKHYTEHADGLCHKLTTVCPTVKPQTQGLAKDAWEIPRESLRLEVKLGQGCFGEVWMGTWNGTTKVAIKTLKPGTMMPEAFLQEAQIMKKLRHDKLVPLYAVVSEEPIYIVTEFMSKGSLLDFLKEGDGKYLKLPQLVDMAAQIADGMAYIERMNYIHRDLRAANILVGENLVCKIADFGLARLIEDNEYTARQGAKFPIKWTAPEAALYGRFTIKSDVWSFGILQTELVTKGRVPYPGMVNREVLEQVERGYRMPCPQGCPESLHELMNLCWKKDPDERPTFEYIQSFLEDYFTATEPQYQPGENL

SMILES: Cc1cc(Oc2c(F)cccc2F)ncc1-n1ncc(C(=O)c2cc3cc(OC4CCN(C(C)C)CC4)c(N4C(=O)NC(C)(C)C4=O)cc3[nH]2)c1N [Example 5-1-188, 3-[2-[5-amino-1-[6-(2,6-difluorophenoxy)-4-methylpyridin-3-yl]pyrazole-4-carbonyl]-5-(1-propan-2-ylpiperidin-4-yl)oxy-1H-indol-6-yl]-5,5-dimethylimidazolidine-2,4-dione]
- IC50 (human Yes1 enzyme): 0.3 nM
- IC50 (human Src enzyme): 4.6 nM
- IC50 (human Lck enzyme): 1.2 nM

SMILES: Cc1cc(Oc2ccccc2F)ccc1-n1ncc(C(=O)c2cc3cc(OC4CCN(C(C)C)CC4)c(NS(C)(=O)=O)cc3[nH]2)c1N [Example 5-1-189, N-[2-[5-amino-1-[4-(2-fluorophenoxy)-2-methylphenyl]pyrazole-4-carbonyl]-5-(1-propan-2-ylpiperidin-4-yl)oxy-1H-indol-6-yl] methanesulfonamide]
- IC50 (human Yes1 enzyme): 0.38 nM
- IC50 (human Src enzyme): 3.3 nM
- IC50 (human Lck enzyme): 1.5 nM

SMILES: Cc1cc(Oc2ccccc2F)ccc1-n1ncc(C(=O)c2cc3cc(OC4CCN(C(C)C)CC4)c(N4CCOCC4)cc3[nH]2)c1N [Example 5-1-190, [5-amino-1-[4-(2-fluorophenoxy)-2-methylphenyl]pyrazol-4-yl]-[6-morpholin-4-yl-5-(1-propan-2-ylpiperidin-4-yl)oxy-1H-indol-2-yl]methanone]
- IC50 (human Yes1 enzyme): 0.41 nM
- IC50 (human Src enzyme): 1.8 nM
- IC50 (human Lck enzyme): 1.3 nM

SMILES: Cc1cc(Oc2ccccc2F)ccc1-n1ncc(C(=O)c2cc3cc(OC4CCN(C(C)C)CC4)c(N4CCN(S(C)(=O)=O)CC4)cc3[nH]2)c1N [Example 5-1-191, [5-amino-1-[4-(2-fluorophenoxy)-2-methylphenyl]pyrazol-4-yl]-[6-(4-methylsulfonylpiperazin-1-yl)-5-(1-propan-2-ylpiperidin-4-yl)oxy-1H-indol-2-yl]methanone]
- IC50 (human Yes1 enzyme): 0.48 nM
- IC50 (human Src enzyme): 2.2 nM
- IC50 (human Lck enzyme): 1.6 nM

SMILES: Cc1cc(Oc2ccccc2F)ccc1-n1ncc(C(=O)c2cc3cc(OC4CCN(C(C)C)CC4)c(N4CCOC4=O)cc3[nH]2)c1N [Example 5-1-192, 3-[2-[5-amino-1-[4-(2-fluorophenoxy)-2-methylphenyl]pyrazole-4-carbonyl]-5-(1-propan-2-ylpiperidin-4-yl)oxy-1H-indol-6-yl]-1,3-oxazolidin-2-one]
- IC50 (human Yes1 enzyme): 0.29 nM
- IC50 (human Src enzyme): 1.1 nM
- IC50 (human Lck enzyme): 0.86 nM

SMILES: Cc1cc(Oc2ccccc2F)ccc1-n1ncc(C(=O)c2cc3cc(OC4CCN(C(C)C)CC4)c(N4C(=O)NC(C)(C)C4=O)cc3[nH]2)c1N [Example 5-1-193, 3-[2-[5-amino-1-[4-(2-fluorophenoxy)-2-methylphenyl]pyrazole-4-carbonyl]-5-(1-propan-2-ylpiperidin-4-yl)oxy-1H-indol-6-yl]-6,5-dimethylimidazolidine-2,4-dione]
- IC50 (human Yes1 enzyme): 0.32 nM
- IC50 (human Src enzyme): 2.3 nM
- IC50 (human Lck enzyme): 1.3 nM

SMILES: Cc1cc(Oc2ccccc2F)ccc1-n1ncc(C(=O)c2cc3cc(OC4CCN(C(C)C)CC4)c(N4CCC(N5CCOCC5)CC4)cc3[nH]2)c1N [Example 5-1-194, [5-amino-1-[4-(2-fluorophenoxy)-2-methylphenyl]pyrazol-4-yl]-[6-(4-morpholin-4-ylpiperidin-1-yl)-5-(1-propan-2-ylpiperidin-4-yl)oxy-1H-indol-2-yl]methanone]
- IC50 (human Yes1 enzyme): 0.35 nM
- IC50 (human Src enzyme): 1.5 nM
- IC50 (human Lck enzyme): 1.2 nM

SMILES: Cc1cc(-n2ncc(C(=O)c3cc4cc(OC5CCN(C(C)C)CC5)c(F)cc4[nH]3)c2N)ccc1Oc1ccccc1F [Example 5-1-195, [5-amino-1-[4-(2-fluorophenoxy)-3-methylphenyl]pyrazol-4-yl]-[6-fluoro-5-(1-propan-2-ylpiperidin-4-yl)oxy-1H-indol-2-yl] methanone]
- IC50 (human Yes1 enzyme): 1.3 nM
- IC50 (human Src enzyme): 190 nM
- IC50 (human Lck enzyme): 45 nM

SMILES: Cc1cc(-n2ncc(C(=O)c3cc4cc(OC5CCN(C(C)C)CC5)c(Cl)cc4[nH]3)c2N)ccc1Oc1ccccc1F [Example 5-1-196, [5-amino-1-[4-(2-fluorophenoxy)-3-methylphenyl]pyrazol-4-yl]-[6-chloro-5-(1-propan-2-ylpiperidin-4-yl)oxy-1H-indol-2-yl] methanone]
- IC50 (human Yes1 enzyme): 1.7 nM
- IC50 (human Src enzyme): 190 nM
- IC50 (human Lck enzyme): 67 nM

SMILES: Cc1cc(Oc2ccccc2F)ccc1-n1ncc(C(=O)c2cc3cc(OC4CCN(C(C)C)CC4)c(Cl)cc3[nH]2)c1N [Example 5-1-197, [5-amino-1-[4-(2-fluorophenoxy)-2-methylphenyl]pyrazol-4-yl]-[6-chloro-5-(1-propan-2-ylpiperidin-4-yl)oxy-1H-indol-2-yl] methanone]
- IC50 (human Yes1 enzyme): 0.87 nM
- IC50 (human Src enzyme): 7.7 nM
- IC50 (human Lck enzyme): 8.3 nM

SMILES: Cc1cc2cc(C(=O)c3cnn(-c4ccc(Oc5ccccc5F)c(F)c4)c3N)[nH]c2cc1NS(C)(=O)=O [Example 5-1-198, N-[2-[5-amino-1-[3-fluoro-4-(2-fluorophenoxy)phenyl]pyrazole-4-carbonyl]-5-methyl-1H-indol-6-yl]methanesulfonamide]
- IC50 (human Yes1 enzyme): 1.5 nM
- IC50 (human Src enzyme): 270 nM
- IC50 (human Lck enzyme): 36 nM

SMILES: Cc1cc2cc(C(=O)c3cnn(-c4cc(F)c(Oc5ccccc5F)cc4C)c3N)[nH]c2cc1NS(C)(=O)=O [Example 5-1-199, N-[2-[5-amino-1-[5-fluoro-4-(2-fluorophenoxy)-2-methylphenyl]pyrazole-4-carbonyl]-5-methyl-1H-indol-6-yl]methanesulfonamide]
- IC50 (human Yes1 enzyme): 2.7 nM
- IC50 (human Src enzyme): 78 nM
- IC50 (human Lck enzyme): 37 nM

SMILES: Cc1cc2cc(C(=O)c3cnn(-c4cc(C)c(Oc5ccccc5F)cc4C)c3N)[nH]c2cc1NS(C)(=O)=O [Example 5-1-200, N-[2-[5-amino-1-[4-(2-fluorophenoxy)-2,5-dimethylphenyl]pyrazole-4-carbonyl]-5-methyl-1H-indol-6-yl]methanesulfonamide]
- IC50 (human Yes1 enzyme): 52 nM
- IC50 (human Src enzyme): 920 nM
- IC50 (human Lck enzyme): 270 nM

SMILES: Cc1cc(Oc2c(F)cccc2F)ncc1-n1ncc(C(=O)c2cc3cc(OC4CCN(C(C)C)CC4)c(N4CCC(N5CCOCC5)CC4)cc3[nH]2)c1N [Example 5-1-201, [5-amino-1-[6-(2,6-difluorophenoxy)-4-methylpyridin-3-yl]pyrazol-4-yl]-[6-(4-morpholin-4-ylpiperidin-1-yl)-5-(1-propan-2-ylpiperidin-4-yl)oxy-1H-indol-2-yl]methanone]
- IC50 (human Yes1 enzyme): 0.25 nM
- IC50 (human Src enzyme): 3.5 nM
- IC50 (human Lck enzyme): 3.2 nM

SMILES: Cc1cc(Oc2c(F)cccc2F)ncc1-n1ncc(C(=O)c2cc3cc(OC4CCN(C(C)C)CC4)c(N4CCC(O)CC4)cc3[nH]2)c1N [Example 5-1-202, [5-amino-1-[6-(2,6-difluorophenoxy)-4-methylpyridin-3-yl]pyrazol-4-yl]-[6-(4-hydroxypiperidin-1-yl)-5-(1-propan-2-ylpiperidin-4-yl)oxy-1H-indol-2-yl]methanone]
- IC50 (human Yes1 enzyme): 0.17 nM
- IC50 (human Src enzyme): 3.1 nM
- IC50 (human Lck enzyme): 2.8 nM

SMILES: Cc1cc(Oc2ccccc2F)ccc1-n1ncc(C(=O)c2cc3cc(OC4CCN(C(C)C)CC4)c(F)cc3[nH]2)c1N [Example 5-1-203, [5-amino-1-[4-(2-fluorophenoxy)-2-methylphenyl]pyrazol-4-yl]-[6-fluoro-5-(1-propan-2-ylpiperidin-4-yl)oxy-1H-indol-2-yl]methanone]
- IC50 (human Yes1 enzyme): 0.36 nM
- IC50 (human Src enzyme): 7 nM
- IC50 (human Lck enzyme): 6.2 nM
